Measured values as given in patent US20160151335A1, “METHODS OF MODULATING CFTR ACTIVITY” (PROTEOSTASIS THERAPEUTICS, INC., priority 2013, published 2016).

Target: T1, ΔF508-CFTR (Homo sapiens, UniProt P13569, DEL508-508)
T1 construct: Primary lung epithelial cells (hBEs) homozygous for the Cystic Fibrosis-causing ΔF508 mutation; endogenous in cells; host or cells: primary lung (bronchial) epithelial cells (hBE) homozygous for ΔF508, differentiated at an air-liquid interface
Experiment: hBE equivalent current (Ieq) assay, AUC of equivalent chloride current
Assay type: cell-based
Conditions: compound at 10 uM, 24 h, primary hBE cells homozygous ΔF508; AUC increase relative to VX-809 at 1 uM
Experimental: Primary lung epithelial cells homozygous for the Cystic Fibrosis-causing ΔF508 mutation were differentiated for a minimum of 4 weeks in an air-liquid interface on Costar 24 well HTS filter plates prior to the equivalent current (Ieq) measurements. Cells were apically mucus-washed for 30 minutes 24 h prior to treatment with compounds. The basolateral media was removed and replaced with media containing the compound of interest diluted to its final concentration from DMSO stocks. Treated cells were incubated at 37° C. and 5% CO2 for 24 hours. At the end of the treatment period, the media was changed to the Ieq experimental solution for 30 minutes before the experiment and plates are maintained in a CO2-free incubator during this period. The plates containing the cells were then placed in pre-warmed heating blocks at 36° C.±0.5 for 15 minutes before measurements are taken. The transepithelial voltage (VT) and conductance (GT) were measured using a custom 24 channel current clamp (TECC-24) with 24 well electrode manifold. The Ieq assay measurements were made following additions with standardized time periods: • 1. The baseline VT and GT values were measured for approximately 20 minutes. • 2. Benzamil was added to block ENaC for 15 minutes. • 3. Forskolin plus VX-770 were added to maximally activate ΔF508-CFTR for 27 minutes. • 4. Bumetanide was added to inhibit the NaK2Cl cotransporter and shut-off secretion of chloride. The activity data captured was the area under the curve (AUC) for the traces of the equivalent chloride current. The AUC was collected from the time of the forskolin/VX-770 addition until the inhibition by bumetanide addition. Correction in response to compound treatment was scored as the increase in the AUC for compound-treated samples over that of vehicle-treated samples. (++ indicates activity ≧25% run at 10 uM of VX-809 at 1 uM, + indicates activity 10 to ≦25% run at 10 uM of VX-809 at 1 uM.

T1 sequence (P13569 with tags, fused parts or gaps DEL508-508): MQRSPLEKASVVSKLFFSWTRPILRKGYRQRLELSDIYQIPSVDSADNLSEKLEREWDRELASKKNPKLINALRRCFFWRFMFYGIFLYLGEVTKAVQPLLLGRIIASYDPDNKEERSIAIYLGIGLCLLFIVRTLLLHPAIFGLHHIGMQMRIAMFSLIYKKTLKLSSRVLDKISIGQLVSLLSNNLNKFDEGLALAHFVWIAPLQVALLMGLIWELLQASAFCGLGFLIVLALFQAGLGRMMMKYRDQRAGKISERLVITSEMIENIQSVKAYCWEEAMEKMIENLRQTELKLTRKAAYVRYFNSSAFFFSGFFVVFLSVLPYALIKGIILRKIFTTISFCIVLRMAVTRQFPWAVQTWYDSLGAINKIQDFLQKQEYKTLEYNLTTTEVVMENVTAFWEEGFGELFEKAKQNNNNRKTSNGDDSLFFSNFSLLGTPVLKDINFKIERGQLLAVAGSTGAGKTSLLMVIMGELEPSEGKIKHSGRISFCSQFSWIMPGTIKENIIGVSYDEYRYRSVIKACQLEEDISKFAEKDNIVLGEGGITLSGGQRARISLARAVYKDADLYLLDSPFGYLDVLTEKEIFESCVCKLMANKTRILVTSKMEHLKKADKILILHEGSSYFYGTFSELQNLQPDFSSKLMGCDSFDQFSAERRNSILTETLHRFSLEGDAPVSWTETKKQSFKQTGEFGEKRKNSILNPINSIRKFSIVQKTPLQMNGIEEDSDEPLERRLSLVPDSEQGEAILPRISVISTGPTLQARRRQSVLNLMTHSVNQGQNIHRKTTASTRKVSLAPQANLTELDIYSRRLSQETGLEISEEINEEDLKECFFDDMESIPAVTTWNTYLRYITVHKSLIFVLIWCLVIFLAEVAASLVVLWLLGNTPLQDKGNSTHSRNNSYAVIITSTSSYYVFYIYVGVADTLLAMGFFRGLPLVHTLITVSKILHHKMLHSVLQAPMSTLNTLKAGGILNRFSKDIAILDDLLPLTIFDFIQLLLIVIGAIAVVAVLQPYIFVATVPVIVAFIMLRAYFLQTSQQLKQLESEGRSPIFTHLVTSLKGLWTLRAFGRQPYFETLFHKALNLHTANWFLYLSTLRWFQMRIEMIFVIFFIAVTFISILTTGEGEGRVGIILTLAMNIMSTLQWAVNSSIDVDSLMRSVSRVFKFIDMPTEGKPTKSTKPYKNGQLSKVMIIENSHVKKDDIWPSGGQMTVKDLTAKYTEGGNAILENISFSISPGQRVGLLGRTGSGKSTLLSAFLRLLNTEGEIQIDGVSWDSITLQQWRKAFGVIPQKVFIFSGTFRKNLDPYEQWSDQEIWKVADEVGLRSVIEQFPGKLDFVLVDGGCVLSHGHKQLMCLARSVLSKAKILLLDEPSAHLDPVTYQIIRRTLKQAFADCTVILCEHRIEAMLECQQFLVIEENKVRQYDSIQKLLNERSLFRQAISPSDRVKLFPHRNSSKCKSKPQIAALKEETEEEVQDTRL

Row | SMILES | Ieq hBE Activity
1 | O=C(NCC1CCCO1)c1cc(-c2ccccc2)on1 (stereo not drawn) [Compound 1] | ++ (++ indicates activity ≧25% run at 10 uM of VX-809 at 1 uM)
2 | O=C(NC[C@@H]1CCCO1)c1cc(-c2ccccc2)on1 [Compound 2, (S)-5-phenyl-N-((tetrahydrofuran-2-yl)methyl)isoxazole-3-carboxamide] | ++ (++ indicates activity ≧25% run at 10 uM of VX-809 at 1 uM)
3 | O=C(NCCN1CCOCC1)c1cc(-c2ccccc2)on1 [Compound 4] | ++ (++ indicates activity ≧25% run at 10 uM of VX-809 at 1 uM)
4 | O=C(NCCN1CCOC1=O)c1cc(-c2ccccc2)on1 [Compound 5] | ++ (++ indicates activity ≧25% run at 10 uM of VX-809 at 1 uM)
5 | O=C(NCCc1cnccn1)c1cc(-c2ccccc2)on1 [Compound 6] | ++ (++ indicates activity ≧25% run at 10 uM of VX-809 at 1 uM)
6 | O=C(NCC(O)c1ccncc1)c1cc(-c2ccccc2)on1 (stereo not drawn) [Compound 7] | ++ (++ indicates activity ≧25% run at 10 uM of VX-809 at 1 uM)
7 | Cc1nnc(CCNC(=O)c2cc(-c3ccccc3)on2)s1 [Compound 8] | ++ (++ indicates activity ≧25% run at 10 uM of VX-809 at 1 uM)
8 | CCn1nc(C)c(CCNC(=O)c2cc(-c3ccccc3)on2)c1C [Compound 10] | + (+ indicates activity 10 to ≦25% run at 10 uM of VX-809 at 1 uM)
9 | COCc1noc(CCNC(=O)c2cc(-c3ccccc3)on2)n1 [Compound 11] | ++ (++ indicates activity ≧25% run at 10 uM of VX-809 at 1 uM)
10 | O=C(NCCc1noc(C2CCCC2)n1)c1cc(-c2ccccc2)on1 [Compound 12] | ++ (++ indicates activity ≧25% run at 10 uM of VX-809 at 1 uM)
11 | O=C(NCCCN1CCOCC1)c1cc(-c2ccccc2)on1 [Compound 13] | ++ (++ indicates activity ≧25% run at 10 uM of VX-809 at 1 uM)
12 | O=C(NCCCN1CCOCC1)c1cc(-c2cccs2)on1 [Compound 14] | ++ (++ indicates activity ≧25% run at 10 uM of VX-809 at 1 uM)
13 | O=C(NCCCn1ccnc1)c1cc(-c2ccc(F)cc2)on1 [Compound 15] | + (+ indicates activity 10 to ≦25% run at 10 uM of VX-809 at 1 uM)
14 | Cn1c(CCCNC(=O)c2cc(-c3ccccc3)on2)nc2ccccc21 [Compound 17] | + (+ indicates activity 10 to ≦25% run at 10 uM of VX-809 at 1 uM)
15 | COCCNC(=O)c1cc(-c2ccc(F)cc2)on1 [Compound 19] | ++ (++ indicates activity ≧25% run at 10 uM of VX-809 at 1 uM)
16 | O=C(NCc1ccco1)c1cc(-c2ccccc2)on1 [Compound 20] | + (+ indicates activity 10 to ≦25% run at 10 uM of VX-809 at 1 uM)
17 | Cn1ccc(CNC(=O)c2cc(-c3ccccc3)on2)n1 [Compound 27] | + (+ indicates activity 10 to ≦25% run at 10 uM of VX-809 at 1 uM)
18 | CCCn1cc(CNC(=O)c2cc(-c3ccccc3)on2)cn1 [Compound 30] | + (+ indicates activity 10 to ≦25% run at 10 uM of VX-809 at 1 uM)
19 | COCc1noc(CNC(=O)c2cc(-c3ccccc3)on2)n1 [Compound 35] | ++ (++ indicates activity ≧25% run at 10 uM of VX-809 at 1 uM)
20 | CSCc1noc(CNC(=O)c2cc(-c3ccccc3)on2)n1 [Compound 36] | ++ (++ indicates activity ≧25% run at 10 uM of VX-809 at 1 uM)
21 | O=C(NCc1ccccn1)c1cc(-c2ccccc2)on1 [Compound 41] | + (+ indicates activity 10 to ≦25% run at 10 uM of VX-809 at 1 uM)
22 | O=C(NCC1CCCC1)c1cc(-c2ccccc2)on1 [Compound 51] | + (+ indicates activity 10 to ≦25% run at 10 uM of VX-809 at 1 uM)
23 | O=C(NCC1CCOC1)c1cc(-c2ccccc2)on1 (stereo not drawn) [Compound 52] | ++ (++ indicates activity ≧25% run at 10 uM of VX-809 at 1 uM)
24 | O=C(NCCC1CCOCC1)c1cc(-c2ccccc2)on1 [Compound 90] | ++ (++ indicates activity ≧25% run at 10 uM of VX-809 at 1 uM)
25 | CN1CCN(CCNC(=O)c2cc(-c3ccccc3)on2)CC1 [Compound 92] | ++ (++ indicates activity ≧25% run at 10 uM of VX-809 at 1 uM)
26 | O=C(NCCN1C(=O)CSC1=O)c1cc(-c2ccccc2)on1 [Compound 94] | + (+ indicates activity 10 to ≦25% run at 10 uM of VX-809 at 1 uM)

Row | SMILES | Ieq hBE Activity
27 | O=C(NCCc1ccccc1)c1cc(-c2ccccc2)on1 [Compound 95] | ++ (++ indicates activity ≧25% run at 10 uM of VX-809 at 1 uM)
28 | NS(=O)(=O)c1ccc(CCNC(=O)c2cc(-c3ccccc3)on2)cc1 [Compound 97] | ++ (++ indicates activity ≧25% run at 10 uM of VX-809 at 1 uM)
29 | O=C(NCCc1ccccn1)c1cc(-c2ccccc2)on1 [Compound 100] | + (+ indicates activity 10 to ≦25% run at 10 uM of VX-809 at 1 uM)
30 | O=C(NCCc1cccnc1)c1cc(-c2ccccc2)on1 [Compound 101] | ++ (++ indicates activity ≧25% run at 10 uM of VX-809 at 1 uM)
31 | O=C(NCCc1ccncc1)c1cc(-c2ccccc2)on1 [Compound 102] | ++ (++ indicates activity ≧25% run at 10 uM of VX-809 at 1 uM)
32 | O=C(NCCc1csc(-c2ncccn2)n1)c1cc(-c2ccccc2)on1 [Compound 110] | ++ (++ indicates activity ≧25% run at 10 uM of VX-809 at 1 uM)
33 | Cc1nn2cc(CCNC(=O)c3cc(-c4ccccc4)on3)nc2s1 [Compound 114] | ++ (++ indicates activity ≧25% run at 10 uM of VX-809 at 1 uM)
34 | O=C(NCCn1nccn1)c1cc(-c2ccccc2)on1 [Compound 115] | ++ (++ indicates activity ≧25% run at 10 uM of VX-809 at 1 uM)
35 | O=C(NCCc1c[nH]c2ccccc12)c1cc(-c2ccccc2)on1 [Compound 120] | ++ (++ indicates activity ≧25% run at 10 uM of VX-809 at 1 uM)
36 | O=C(NCCCN1CCOCC1)c1cc(-c2ccc(F)cc2)on1 [Compound 128] | + (+ indicates activity 10 to ≦25% run at 10 uM of VX-809 at 1 uM)
37 | O=C(NCCCN1CCOCC1)c1cc(-c2ccccc2F)on1 [Compound 135] | + (+ indicates activity 10 to ≦25% run at 10 uM of VX-809 at 1 uM)
38 | COCCNC(=O)c1cc(-c2ccccc2F)on1 [Compound 150] | + (+ indicates activity 10 to ≦25% run at 10 uM of VX-809 at 1 uM)
39 | COCCNC(=O)c1cc(-c2ccccc2OC)on1 [Compound 153] | ++ (++ indicates activity ≧25% run at 10 uM of VX-809 at 1 uM)
40 | COCCNC(=O)c1cc(-c2ccc(C(F)(F)F)cc2)on1 [Compound 161] | + (+ indicates activity 10 to ≦25% run at 10 uM of VX-809 at 1 uM)
41 | O=C(NCC(O)COCc1ccccc1)c1cc(-c2ccccc2)on1 (stereo not drawn) [Compound 172] | + (+ indicates activity 10 to ≦25% run at 10 uM of VX-809 at 1 uM)
42 | O=C(NCCCn1cccc1)c1cc(-c2ccccc2)on1 [Compound 186] | ++ (++ indicates activity ≧25% run at 10 uM of VX-809 at 1 uM)
43 | Cn1nccc1CCCNC(=O)c1cc(-c2ccccc2)on1 [Compound 188] | ++ (++ indicates activity ≧25% run at 10 uM of VX-809 at 1 uM)
44 | O=C(NCCCn1cccn1)c1cc(-c2ccccc2)on1 [Compound 189] | ++ (++ indicates activity ≧25% run at 10 uM of VX-809 at 1 uM)
45 | Cc1nc(CCCNC(=O)c2cc(-c3ccccc3)on2)sc1C [Compound 191] | ++ (++ indicates activity ≧25% run at 10 uM of VX-809 at 1 uM)
46 | O=C(NCCCn1cncn1)c1cc(-c2ccccc2)on1 [Compound 192] | ++ (++ indicates activity ≧25% run at 10 uM of VX-809 at 1 uM)
47 | O=C(NCCCc1ccoc1)c1cc(-c2ccccc2)on1 [Compound 194] | + (+ indicates activity 10 to ≦25% run at 10 uM of VX-809 at 1 uM)
48 | Cn1cncc1CCCNC(=O)c1cc(-c2ccccc2)on1 [Compound 195] | ++ (++ indicates activity ≧25% run at 10 uM of VX-809 at 1 uM)
49 | Cn1cnc(CCCNC(=O)c2cc(-c3ccccc3)on2)c1 [Compound 197] | ++ (++ indicates activity ≧25% run at 10 uM of VX-809 at 1 uM)
50 | Cn1ccc(CCCNC(=O)c2cc(-c3ccccc3)on2)c1 [Compound 198] | ++ (++ indicates activity ≧25% run at 10 uM of VX-809 at 1 uM)
51 | O=C(NCCCn1nccc1C1CC1)c1cc(-c2ccccc2)on1 [Compound 200] | ++ (++ indicates activity ≧25% run at 10 uM of VX-809 at 1 uM)
